From BigSolDB 2.1

Cc1cc(Cl)ccc1OCC(=O)O
solubility (mole fraction)
Conditions | 278.15 K | 283.15 K | 288.15 K | 293.15 K | 298.15 K | 303.15 K | 308.15 K | 313.15 K | 318.15 K | 323.15 K
in acetone | 0.158 | 0.171 | 0.188 | 0.201 | 0.22 | 0.239 | 0.258 | 0.281 | 0.301 | 0.32
in acetonitrile | 0.0254 | 0.0342 | 0.0458 | 0.0607 | 0.0789 | 0.0968 | 0.128 | 0.159 | 0.196 | 0.248
in ethanol | 0.125 | 0.151 | 0.184 | 0.235 | 0.3 | 0.352 | 0.424 | 0.497 | 0.561 | 0.661
in ethyl acetate | 0.101 | 0.104 | 0.116 | 0.127 | 0.146 | 0.17 | 0.192 | 0.221 | 0.25 | 0.299
in ethyl formate | 0.0572 | 0.0618 | 0.0699 | 0.0798 | 0.0914 | 0.107 | 0.123 | 0.14 | 0.164 | 0.204
in isobutanol | 0.0895 | 0.111 | 0.139 | 0.17 | 0.214 | 0.265 | 0.332 | 0.39 | 0.454 | 0.558
in isopropanol | 0.123 | 0.134 | 0.154 | 0.175 | 0.2 | 0.237 | 0.27 | 0.314 | 0.364 | 0.428
in methyl acetate | 0.0958 | 0.106 | 0.12 | 0.134 | 0.149 | 0.17 | 0.2 | 0.234 | 0.271 | 0.318
in n-butyl acetate | 0.0915 | 0.0974 | 0.106 | 0.122 | 0.139 | 0.162 | 0.185 | 0.209 | 0.247 | 0.296
in n-propanol | 0.127 | 0.138 | 0.159 | 0.197 | 0.238 | 0.279 | 0.342 | 0.405 | 0.46 | 0.54
in n-propyl acetate | 0.0958 | 0.103 | 0.112 | 0.127 | 0.144 | 0.161 | 0.182 | 0.211 | 0.243 | 0.297
in toluene | 0.00841 | 0.00904 | 0.011 | 0.0136 | 0.0172 | 0.0214 | 0.0274 | 0.0331 | 0.0419 | 0.0515
